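Exposure lasted 48 hours, with cells grown in 96-well plates and compounds tested at five concentrations. GI50 marks 50% less growth. TGI denotes the concentration required for complete inhibition of growth.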
What was measured:
Test in all cases: NCI anticancer screen, dose series, 48 h
A498 renal = system: A498 renal
MALME-3M melanoma = system: MALME-3M melanoma
NCI-H23 lung = system: NCI-H23 lung
OVCAR-8 ovarian = system: OVCAR-8 ovarian
UO-31 renal = system: UO-31 renal
K-562 leukemia = system: K-562 leukemia
SK-OV-3 ovarian = system: SK-OV-3 ovarian

Row | SMILES | TGI (A498 renal) [µM] | TGI (MALME-3M melanoma) [µM] | TGI (NCI-H23 lung) [µM] | TGI (OVCAR-8 ovarian) [µM] | TGI (UO-31 renal) [µM] | TGI (K-562 leukemia) [µM] | TGI (SK-OV-3 ovarian) [µM] | GI50 (UO-31 renal) [µM]
1 | CCOC(=O)c1nc2ccccc2nc1Nc1ccc(C(=O)OC)s1 | > 100 | > 100 | > 100 | > 100 | > 100 |  |  | 
2 | CC1CN(c2cc3c(cc2F)c(=O)c(C(=O)O)cn3-c2ccc(N3CCN(C)CC3)cn2)CC(C)N1 (stereo not drawn) | > 100 | > 100 | > 100 | > 100 | > 100 | > 100 | > 100 | 
3 | COC(=O)/C=C1\C(CO[Si](C)(C)C(C)(C)C)OC(n2cc(C)c(=O)n(C)c2=O)C1O[Si](C)(C)C(C)(C)C (stereo not drawn) | > 100 | > 100 | > 100 | > 100 | > 100 | > 100 | > 100 | 
4 | OCc1ccc2c(c1)CC1(Cc3ccccc3C1)C2 | > 100 | 29.4 | 82.3 | > 100 | 29.1 | 38.1 | 84.8 | 
5 | CCOP(=O)(OCC)C(Nc1ccc(Cl)cc1)c1ccc(F)cc1 (stereo not drawn) | 58.7 | 42.3 | 53.9 | > 100 | 59.9 | 68.5 | > 100 | 
6 | CC1(C)C2CC3C(C)(C2)C31c1cc(Cl)ccc1N (stereo not drawn) | 31.8 | 21.3 | 26 | 30.3 | 26.8 | 23.5 | 29 | 
7 | Cc1cn(C2CC(O)C(Cn3nncc3Cn3nc(Br)c(=O)[nH]c3=O)O2)c(=O)[nH]c1=O (stereo not drawn) | > 100 | > 100 | > 100 | > 100 | > 100 |  | > 100 | 
8 | CCSC12OC3(CCCCCN3C1=O)C1C(=O)N(c3ccccc3)C(=O)C12 (stereo not drawn) | > 100 | > 100 | > 100 | > 100 | > 100 | > 100 | > 100 | 
9 | CCOc1ccc2c(c1)C(/C(C(Cl)=C(Cl)Cl)=[N+](/[O-])OC(=O)c1ccccc1)=N2 | > 100 | > 100 | > 100 | > 100 | > 100 | > 100 | > 100 | 
10 | O=S(=O)(O)c1ccc(O)c(N=Nc2c(O)ccc3ccccc23)c1 | > 100 |  | > 100 | > 100 | > 100 | > 100 | > 100 | 
11 | NC1(c2cc3ccccc3s2)CCCCCC1 | 35.2 |  | 34 | 35.8 | 28.1 | 28.1 | 31.2 | 
12 | O=C1C(c2ccccc2)=C(c2ccccc2)C1(Cl)Cl | 17.2 | 7.56 | 7.72 | 8.98 | 13.5 | 4.13 | 29.2 | 
13 | Cc1cc(N(CCC#N)CCC#N)ccc1/C(N=Nc1ccc(C(=O)O)cc1)=N\NC(=O)c1ccccc1 | 84.4 | > 100 | > 100 | > 100 | > 100 | > 100 | > 100 | 
14 | O=c1oc2ccccc2c(O)c1C(c1ccc(OCc2ccccc2)cc1)c1c(O)c2ccccc2oc1=O | > 100 | > 100 | > 100 | > 100 | 52.5 |  | > 100 | 
15 | Cc1cnc2c(c1)C(=O)N(c1ccc(Oc3ccccc3)cc1)S2(=O)=O |  | > 100 | > 100 | > 100 | > 100 | > 100 | > 100 | 
16 | CCOP(=O)(OCC)/C(=C/n1c(=S)[nH]c2ccccc21)C(=O)OC | > 100 | > 100 | > 100 | > 100 | > 100 | > 100 | > 100 | > 100
17 | N#Cc1c(/C=C/c2ccccc2)c2c([nH]c1=S)CCCCC2 | > 100 | > 100 | > 100 | > 100 | > 100 | > 100 | > 100 | 
18 | CC(C)OC1=C(CC2(C)OCCO2)C(=O)C12OCCO2 | > 100 |  | > 100 | > 100 | > 100 |  | > 100 | 
19 | CCC[N+](C)(C)CCCNC(=O)c1c(O)c2ccccc2[nH]c1=O | > 100 | > 100 | > 100 | > 100 | > 100 | > 100 | > 100 | 
20 | O=c1c2cccnc2oc2c(Cl)cc(-c3nn[nH]n3)cc12 | > 100 | > 100 | > 100 | > 100 | > 100 | > 100 | > 100 | 
21 | CC(C)(C)OC(=O)N1C(=O)C2CCCC21 (stereo not drawn) | > 100 |  | > 100 | > 100 |  |  | > 100 | 
22 | CC(=O)NC1C(OCc2ccccc2)OC(CO)C(O)C1OC(C)C(=O)NC(C(=O)NC(CCC(=O)NCCCNc1ccc([N+](=O)[O-])c2[nH]c3ccccc3c(=O)c12)C(N)=O)C(C)C (stereo not drawn) | > 100 |  | > 100 | > 100 | > 100 |  | > 100 | 
23 | COc1ccc(C2N(c3ccc(C)c(N=C=O)c3)C(=O)N3C(c4ccc(OC)cc4)N(c4ccc(C)c(N=C=O)c4)C(=O)N23)cc1 (stereo not drawn) | > 100 | 96.1 | > 100 | > 100 | > 100 | > 100 |  | 
24 | CC1(C)CC(=O)c2c(N)n[nH]c2C1 | > 100 | > 100 | > 100 | > 100 | > 100 | > 100 |  | 
25 | OC(CCN1CCN(CCOC(c2ccccc2)c2ccccc2)CC1)c1ccccc1 (stereo not drawn) | 21.6 | 32.6 | 63.1 | 33 | 44 |  | > 100 | 
26 | COC(=O)N[C@@H]1C[C@H]2CC[C@]1(O[Si](C(C)C)(C(C)C)C(C)C)C(=O)C2 | 44.3 |  | 39.3 | 63.4 | 32 | > 100 | 46.5 | 
27 | CCOC(=O)c1sc2nc(SC)nc3c2c1NCN3C | 57.6 | 57.6 | 59.1 | 25.9 | 37.6 |  | 38.3 | 
28 | Clc1nc2nc(N3CCNCC3)nc(N3CCCC3)c2[nH]1 |  | 36.3 | 32 | 30.3 | 29.6 | 52.7 | 37.2 | 
29 | [N-]=[N+]=Nc1cc(=O)[nH]c2ccccc12 |  | > 100 | > 100 | > 100 | > 100 | > 100 | > 100 | 

Source: PubChem BioAssay (NCI)
